One assay concerns HIV-1 (IIIB). The assay is described as follows: Inhibition of HIV-1 syncytium formation in CEM cells. Conditions: for EC50: read-out: EC50 (μg/ml) HIV-1; for HIV-1 % Protection: protection of CEM cells against virus-induced cytopathicity at the compound concentration in the previous column. The class given is cell-based. The source says: (§1) The cell type used to determine activity of the compounds of the invention herein, i.e., the test compounds, against HIV was human T-lymphoblast (CEM) cells obtained from the American Tissue Cell Culture Collection (Rockville, Md.). HIV-1 (IIIB) was originally obtained from the culture of persistently HIV-1 infected H9 cells and was provided by R. C. Gallo and M. Popovic (National Cancer Institute, National Institutes of Health, Bethesda, Md.). HIV-2 (ROD) was originally obtained from L. M. Montagnier (Pasteur Institute, Paris, France).
(§2) To determine the antiviral activity of the test compounds, CEM cells were suspended at a cell density of approximately 300,000 cells per ml of culture medium and infected with approximately 100 CClD50 (100 CClD50 being the 50% cell culture infective dose) of HIV-1 (IIIB) or HIV-2 (ROD)). Then 100 μl of the infected cell suspensions was added to 200 μl micro titer plate wells containing 100 μl of appropriate serial (5-fold) dilutions of the test compounds. The inhibitory effect of the test compounds on HIV-1 or HIV-2 syncytium formation in CEM cells was examined microscopically on day four post infection. The 50% effective concentration (EC50) was defined as the test compound concentration that inhibits syncytium formation in the HIV-1 or HIV-2 infected cell cultures by 50%.
(§3) In some cases, the compounds had considerable cytotoxicity to CEM cells which made determination of the EC50 difficult. In these cases, the percent protection of the cells against virus-induced cytopathicity by the test compounds at the indicated compound concentration in the previous column is given.

The test system of the next assay is HIV-2 (ROD). The assay is described as follows: Inhibition of HIV-2 syncytium formation in CEM cells. The note with it: for EC50: Human immunodeficiency virus 2, CCRF-CEM, read-out: EC50 (μg/ml) HIV-2; for HIV-2 % Protection: protection of CEM cells against virus-induced cytopathicity at the compound concentration in the previous column. The assay is classed as cell-based.
Excerpt: as §1, §2, §3

A further assay relates to CMV Davis strain. Description: Activity against HCMV: virus-induced cytopathicity in HEL cells. The class given is cell-based, human cytomegalovirus (HCMV). The note with it: for IC50: read-out: Antiviral IC50 (μg/ml) Davis strain; for Antiviral % Inhibition Davis strain: estimate of percent protection of HEL cells at the compound concentration. As for the experimental part:
Confluent HEL cells grown in […] microtiter plates were inoculated with CMV at an input of 100 PFU (plaque forming units) per well. After a one to two hour incubation period, residual virus was removed and the infected cells were further incubated with MEM (Minimal Essential Medium) (supplemented with 2% inactivated Fetal Calf Serum (FCS), […], and 0.3% sodium bicarbonate) containing varying concentrations of the test compounds. Antiviral activity was expressed as EC50 (50% effective concentration), or test compound concentration required to reduce virus-induced cytopathicity after seven days by 50% compared to the untreated control.
In some cases, the compounds had considerable cytotoxicity against HEL cells, which made determination of the EC50's difficult. In these cases, an estimate of the percent protection at the compound concentration indicated in the previous columns is given.

The mark [1] stands for this setting: Human immunodeficiency virus 1, IIIB, CCRF-CEM.
The mark [2] stands for this setting: Human betaherpesvirus 5, HEL, 168 h.
[3] abbreviates: Human immunodeficiency virus 1, CCRF-CEM, HIV-1 (IIIB) infected CEM cells, syncytium formation, day four post infection.
Setting [4] is: HIV-2 (ROD) infected CEM cells, syncytium formation, day four post infection.
Where [5] appears, read: Human betaherpesvirus 5, 168 h, CMV-infected HEL cells, virus-induced cytopathicity after seven days.
Where [6] appears, read: HIV-1 (IIIB) infected CEM cells, syncytium formation, day four post infection.
Setting [7] is: CMV-infected HEL cells, virus-induced cytopathicity after seven days.

Converted amounts (≈) assume the structure as drawn. Read-outs that look alike come from different tables or passages of the source. A value given as a limit tells only on which side of the number the result lay.

`Cc1ccc(C)c(CSc2ccccn2)c1` [Compound 148, 2-((2,5-dimethylphenyl)methylthio) pyridine]: the EC50 in the assay on HIV-1 (IIIB) (setting [1]) and with HIV-2 (ROD) was over 20 µg/mL in each case. Further, the IC50 in the assay with CMV Davis strain (setting [2]) was 0.4 µg/mL (≈ 1.74 µM).
In the case of `O=[N+]([O-])c1cc(CS(=O)(=O)c2cccc[n+]2[O-])cc([N+](=O)[O-])c1` [Compound 65, 2-[[(3,5-dinitrophenyl)methyl]sulfonyl]pyridine-N-oxide], the figures for the EC50 in the assay on HIV-1 (IIIB) (setting [3]) and with HIV-2 (ROD) (setting [4]) were 2.8 µg/mL (≈ 8.25 µM) and 3.5 µg/mL (≈ 10.3 µM), respectively. The IC50 with CMV Davis strain (setting [5]) was found to be 5 µg/mL (≈ 14.7 µM).
In the case of “ethyl-N-[4-(pyridyl-N-oxide-2-sulfonylmethyl)phenylcarbonyl]carbamate [Compound 60]”, the “EC50 (μg/ml) HIV-1” value in the assay with HIV-1 (IIIB) (setting [6]) was determined as 40.00 µg/mL. Also, in the assay on HIV-2 (ROD) (setting [4]), the “EC50 (μg/ml) HIV-2” value is 17.0 µg/mL. In the assay with CMV Davis strain (setting [7]), the “Antiviral IC50 (μg/ml) Davis strain” value is over 50 µg/mL. Further, the “Antiviral % Inhibition Davis strain” value in the assay on CMV Davis strain is reported as 0.0%.
Consider `Cc1ccc(C)c(CSc2cccc[n+]2C)c1` [Compound 142, 2[[(2,5-dimethylphenyl)methyl]thio]-1-methylpyridinium chloride], for which the EC50 in the assay on HIV-1 (IIIB) (setting [1]) and in the assay on HIV-2 (ROD) was over 4 µg/mL each time. For the same compound, the “HIV-1 % Protection” value in the assay with HIV-1 (IIIB) was 0.0%. Moreover, the “HIV-2 % Protection” value in the assay with HIV-2 (ROD) turned out to be 0.0%. The IC50 with CMV Davis strain (setting [2]) was 3.4 µg/mL.
For the compound `[O-][n+]1cccc(Cl)c1SCc1ccccc1` [Compound 132, 3-chloro-2-[(phenylmethyl)thio]pyridine-N-oxide], the EC50 in the assay with HIV-1 (IIIB) (setting [1]) was 2.4 µg/mL (≈ 9.53 µM). Moreover, in the assay with HIV-2 (ROD), the EC50 is over 20 µg/mL and the “HIV-2 % Protection” value was 0.0%. In addition, in the assay on CMV Davis strain (setting [2]), the IC50 is over 50 µg/mL. Besides, in the assay on CMV Davis strain, the “Antiviral % Inhibition Davis strain” value is given as 0.0%.
With `COc1ccc(CSc2cc(C(C)(C)C)cc[n+]2[O-])cc1` [Compound 134, 4-(1,1-dimethylethyl)-2-[(4-methoxyphenyl)methylthio]pyridine-N-oxide], the EC50 with HIV-1 (IIIB) (setting [3]) is over 20 µg/mL; with HIV-2 (ROD) (setting [4]), over 100 µg/mL. In the assay with HIV-1 (IIIB), the “HIV-1 % Protection” value is reported as 0.0%. Also, in the assay with HIV-2 (ROD), the “HIV-2 % Protection” value is 0.0%. Also, the IC50 in the assay on CMV Davis strain (setting [5]) is over 50 µg/mL.
Turning to `N#CC(=Cc1ccccc1)Sc1cccc[n+]1[O-]` [Compound 158, 2-(1-cyano-2-phenylethenethio) pyridine-N-oxide], the “EC50 (μg/ml) HIV-1” value with HIV-1 (IIIB) (setting [6]) is over 4 µg/mL. Further, the “HIV-1 % Protection” value in the assay with HIV-1 (IIIB) came out at 0.0%. Moreover, the “EC50 (μg/ml) HIV-2” value in the assay with HIV-2 (ROD) (setting [4]) was over 4 µg/mL. Also, in the assay on HIV-2 (ROD), the “HIV-2 % Protection” value is recorded as 0.0%. Further, the “Antiviral IC50 (μg/ml) Davis strain” value in the assay with CMV Davis strain (setting [7]) was found to be 3.6 µg/mL.
In the case of `Cc1ccc(C)c(CSc2c(Cl)ccc[n+]2[O-])c1` [Compound 133, 3-chloro-2-[[(2,5-dimethylphenyl)methyl]thio]pyridine-N-oxide], the EC50 in the assay with HIV-1 (IIIB) (setting [1]) was 0.14 µg/mL (≈ 0.5 µM); in the assay on HIV-2 (ROD) it was over 20 µg/mL. Also, in the assay on HIV-2 (ROD), the “HIV-2 % Protection” value is reported as 0.0%. Moreover, the IC50 with CMV Davis strain (setting [2]) stood at 25 µg/mL (≈ 89.4 µM).
On to `[O-][n+]1cc(Cl)ccc1SCc1ccccc1` [Compound 151, 5-chloro-2(benzylthio)pyridine-N-oxide], for which the EC50 in the assay with HIV-1 (IIIB) (setting [1]) was over 20 µg/mL. Moreover, the “HIV-1 % Protection” value with HIV-1 (IIIB) came to 0.0%. Besides, in the assay on HIV-2 (ROD), the EC50 was over 20 µg/mL and the “HIV-2 % Protection” value is recorded as 0.0%. In addition, in the assay on CMV Davis strain (setting [2]), the IC50 is over 20 µg/mL. The “Antiviral % Inhibition Davis strain” value in the assay with CMV Davis strain is listed as 20.0%.
Take `CCC(C)(C)c1ccc(CS(=O)(=O)c2cccc[n+]2[O-])cc1` [Compound 40, 2-(4′-tert-pentylphenylmethylsulfonyl)pyridine-N-oxide]: the EC50 is 3.1 µg/mL (≈ 9.7 µM) in the assay on HIV-1 (IIIB) (setting [3]) and 3.4 µg/mL (≈ 10.6 µM) with HIV-2 (ROD) (setting [4]). Besides, in the assay with CMV Davis strain (setting [5]), the IC50 was found to be 1.5 µg/mL (≈ 4.7 µM).
Turning to `Cc1ccc[n+]([O-])c1S(=O)(=O)Cc1c(Cl)cccc1Cl` [Compound 139, 2-[[(2,6-dichlorophenyl)methyl]sulfonyl]-3-methyl-pyridine-N-oxide], the EC50 in the assay on HIV-1 (IIIB) (setting [3]) and with HIV-2 (ROD) (setting [4]) was over 20 µg/mL in each case. Besides, the “HIV-1 % Protection” value in the assay on HIV-1 (IIIB) is given as 0.0%. Also, in the assay with HIV-2 (ROD), the “HIV-2 % Protection” value is given as 0.0%. Moreover, the IC50 in the assay with CMV Davis strain (setting [5]) was determined as 43 µg/mL (≈ 129 µM).

The record behind these values is patent publication US6498254B1, “Antiretroviral compounds and compositions” (Uniroyal Chemical Company, Inc., priority 2001, dated 2002).
